Measured values reported in PubChem BioAssay (NCI).
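Where inhibition never reached the appropriate level, the endpoint shown equals the highest concentration tested. Otherwise, values were interpolated linearly from a five-concentration, 48-hour dose response in 96-well plates. GI50 is the concentration that inhibits growth by half. TGI: total growth inhibition.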

How the values were obtained:
Experiment in all cases: NCI anticancer screen, dose series, 48 h
[1] = system: HL-60(TB) leukemia
[2] = system: COLO 205 colon
[3] = system: NCI-H460 lung
[4] = system: RPMI-8226 leukemia
[5] = system: HT29 colon
[6] = system: SR leukemia
[7] = system: SF-268 CNS
[8] = system: U251 CNS
[9] = system: A549 NSCLC
[10] = system: NCI-H226 lung
[11] = system: M14 melanoma
[12] = system: IGROV1 ovarian
[13] = system: SK-OV-3 ovarian
[14] = system: OVCAR-8 ovarian
[15] = system: NCI-H23 lung
[16] = system: SK-MEL-5 melanoma
[17] = system: MDA-MB-435
[18] = system: ACHN renal
[19] = system: SNB-19 CNS
[20] = system: MALME-3M melanoma
[21] = system: HCC-2998 colon
[22] = system: SK-MEL-28 melanoma
[23] = system: HCT-116 colon
[24] = system: OVCAR-3 ovarian
[25] = system: HOP-92 NSCLC
[26] = system: NCI-H522 lung
[27] = system: HS 578T breast
[28] = system: NCI/ADR-RES ovarian
[29] = system: T-47D breast
[30] = system: BT-549 breast
[31] = system: OVCAR-4 ovarian
[32] = system: OVCAR-5 ovarian
[33] = system: DU-145 prostate
[34] = system: CCRF-CEM leukemia
[35] = system: SN12C renal
[36] = system: LOX IMVI melanoma
[37] = system: SNB-75 CNS
[38] = system: MCF7 breast
[39] = system: PC-3 prostate
[40] = system: KM12 colon
[41] = system: SK-MEL-2 melanoma
[42] = system: HCT-15 colon
[43] = system: SW-620 colon
[44] = system: SF-539 CNS
[45] = system: RXF 393 renal
[46] = system: MDA-MB-231 breast
[47] = system: TK-10 renal
[48] = system: 786-0 renal
[49] = system: K-562 leukemia
[50] = system: HOP-62 NSCLC
[51] = system: A498 renal
[52] = system: SF-295 CNS
[53] = system: UACC-62 melanoma
[54] = system: UACC-257 melanoma
[55] = system: MOLT-4 leukemia
[56] = system: CAKI-1 renal
[57] = system: UO-31 renal

c1ccc(CSc2nnc3c4c5c(sc4nc(-c4cccnc4)n23)CCCCCC5)cc1
GI50 [1]: 1.84 µM | TGI [1]: 5.27 µM | GI50 [2]: 1.55 µM | TGI [2]: 3.33 µM | GI50 [3]: 2.97 µM | TGI [3]: 11.1 µM | GI50 [4]: 1.87 µM | TGI [4]: 12.5 µM | GI50 [5]: 2.78 µM | TGI [5]: 10.9 µM | GI50 [6]: 2.59 µM | TGI [6]: 10.1 µM | GI50 [7]: 4.57 µM | TGI [7]: 17.8 µM | GI50 [8]: 2.2 µM | TGI [8]: 12 µM | GI50 [9]: 2.8 µM | TGI [9]: 13.4 µM | GI50 [10]: 2.03 µM | TGI [10]: 9.96 µM | GI50 [11]: 3.75 µM | TGI [11]: 16.9 µM | GI50 [12]: 4.18 µM | TGI [12]: 19.2 µM | GI50 [13]: 2.75 µM | TGI [13]: 9.54 µM | GI50 [14]: 2.86 µM | TGI [14]: 13.2 µM | GI50 [15]: 2.74 µM | TGI [15]: 8.33 µM | GI50 [16]: 1.37 µM | TGI [16]: 2.68 µM | GI50 [17]: 2.61 µM | TGI [17]: 9.88 µM | GI50 [18]: 2.98 µM | TGI [18]: 10.5 µM | GI50 [19]: 3.96 µM | TGI [19]: 16.2 µM | GI50 [20]: 2.76 µM | TGI [20]: 7.52 µM | GI50 [21]: 4.21 µM | TGI [21]: 15.3 µM | GI50 [22]: 3.35 µM | TGI [22]: 14.1 µM | GI50 [23]: 2.77 µM | TGI [23]: 11.3 µM | GI50 [24]: 2.86 µM | TGI [24]: 12.4 µM | GI50 [25]: 1.7 µM | TGI [25]: 7.24 µM | GI50 [26]: 1.39 µM | TGI [26]: 5.07 µM | GI50 [27]: 3.84 µM | TGI [27]: 28.6 µM | GI50 [28]: 14.1 µM | TGI [28]: 38.1 µM | GI50 [29]: 0.495 µM | TGI [29]: 12.3 µM | GI50 [30]: 2.8 µM | TGI [30]: 9.04 µM | GI50 [31]: 2.08 µM | TGI [31]: 10.2 µM | GI50 [32]: 4.99 µM | TGI [32]: 17.5 µM | GI50 [33]: 3.42 µM | TGI [33]: 14.4 µM | GI50 [34]: 1.11 µM | TGI [34]: 15.5 µM | GI50 [35]: 2.99 µM | TGI [35]: 11.8 µM | GI50 [36]: 3.08 µM | TGI [36]: 11.1 µM | GI50 [37]: 2.58 µM | TGI [37]: 10.3 µM | GI50 [38]: 2.64 µM | TGI [38]: 11.2 µM | GI50 [39]: 2.36 µM | TGI [39]: 10.8 µM | GI50 [40]: 2.6 µM | TGI [40]: 10.5 µM | GI50 [41]: 2.05 µM | TGI [41]: 6.02 µM | GI50 [42]: 4.51 µM | TGI [42]: 17 µM | GI50 [43]: 3.09 µM | TGI [43]: 13.3 µM | GI50 [44]: 3.51 µM | TGI [44]: 12.9 µM | GI50 [45]: 2.79 µM | TGI [45]: 13.1 µM | GI50 [46]: 2.18 µM | TGI [46]: 7.15 µM | GI50 [47]: 3.83 µM | TGI [47]: 12.6 µM | GI50 [48]: 3.63 µM | TGI [48]: 14.2 µM | GI50 [49]: 2.34 µM | TGI [49]: 10.4 µM | GI50 [50]: 2.96 µM | TGI [50]: 12.3 µM | GI50 [51]: 2.24 µM | GI50 [52]: 2.8 µM | TGI [52]: 11.8 µM | GI50 [53]: 1.91 µM | TGI [53]: 7.23 µM | GI50 [54]: 2.12 µM | TGI [54]: 8.74 µM | GI50 [55]: 3 µM | TGI [55]: 11.3 µM | GI50 [56]: 3.43 µM | TGI [56]: 15.7 µM | GI50 [57]: 3.73 µM | TGI [57]: 15.1 µM
